Blank lines part the entries; values can stand above or below the compound they belong to.
Tests used:
Type in all cases: physicochemical
rituximab [1] = experiment: Aggregation of rituximab formulations on storage, % HMWS by size exclusion chromatography; conditions: for effect on the rate of aggregation: Example 5: rituximab 140 mg/ml
Protocol: (§1) Formulations of protein therapeutics, rituximab and certolizumab pegol, were prepared either in the absence or in the presence of various oligomers of ethyleneimine. The following products were used as the starting material: MabThera® (rituximab) and Cimzia® (certolizumab pegol). The compositions of the two products are as follows:
(§2) In order to prepare the formulations for testing, it was necessary to remove the original excipients and replace them with the selected excipients. The following procedure was used to prepare the formulations for testing: Original compositions were removed from the manufacturer's container and dialysed in 3.5 kDa cut-off dialysis cassettes (Thermo Pierce) at 2-8° C., using three changes for a minimum of 4 hours in each, including one overnight incubation.
(§3) The background solutions, containing the new excipients and adjusted to the required pH, were added to the dialysed proteins to achieve the required concentration of excipients and the protein in the final composition. The formulated samples were placed into storage at 40° C. or at 5° C., and stability was tested after a given period of time. The stability of the proteins was tested in compositions containing oligomers of ethyleneimine and compared to a ‘Control formulation’ with identical background in the absence of the oligomers.
(§4) The amount of high molecular weight species is measured using a 300×7.8 mm S3000 (or equivalent) size-exclusion column with a guard column. The mobile phase is potassium phosphate pH 6.5, with a flow rate of 0.4 ml/min, injection volume of 1 μl and detected at 210 and 280 nm. The results are expressed as % high molecular species (HMWS), i.e. sum of all peak areas corresponding to aggregated protein over the sum of all protein-related peaks on the chromatogram. […] However, within a given time-point the samples are tested using the column in the same condition, so the values generated within the time-point represent a very good indication of the relative stability of the protein in the compositions tested.
(§5) Rituximab was formulated at 100 mg/ml in the following background solution: EDTA (0.2 mM), methionine (1 mM), histidine (10 mM). The pH was adjusted to 6.5.
Rituximab was formulated at 100 mg/ml in the following background solution: EDTA (0.2 mM), methionine (1 mM), histidine (10 mM), in the presence of arginine (80 mM) as a tonicity modifier. The pH of all formulations was adjusted to 6.5. For comparison, the formulation of commercial liquid rituximab product (‘Original formulation’ also with rituximab at 100 mg/ml) was also included.
Rituximab was formulated at 100 mg/ml in the following background solution: EDTA (0.2 mM), methionine (1 mM) histidine (10 mM) and trehalose (200 mM). The pH was adjusted to 6.5.
Rituximab was formulated at 140 mg/ml in the following background solution: EDTA (0.2 mM), methionine (1 mM), histidine (10 mM) and trehalose (200 mM). The pH was adjusted to 6.5.

Certolizumab pegol = experiment: Aggregation of certolizumab pegol formulations on storage, % HMWS by size exclusion chromatography; conditions: Certolizumab pegol 100 mg/ml, 40° C.
Protocol: as §1, §2, §3, §4
Certolizumab pegol was formulated at 100 mg/ml in histidine buffer (10 mM, pH 6.0) in the presence of either NaCl (150 mM) or 1,2-propandiol (200 mM) as tonicity modifiers.

rituximab [2] = experiment: Visual assessment of rituximab formulations on storage; conditions: rituximab 100 mg/ml, trehalose 200 mM
Protocol: as §2, §3
Vials are placed in a suitable location with a suitably selected contrasting background, and under sufficient and appropriate illumination to highlight any potential or detected visual deviations. A control (or freshly prepared material) is placed alongside for direct comparison. Solutions are classed as clear if there are no visual imperfections; as cloudy if there is a significant change in the opacity of the material; and if there are insoluble fractions, or if particles are visible towards the bottom of the vial, a precipitate is deemed to have been formed.
as §5

[3] = Example 4: rituximab 100 mg/ml, trehalose 200 mM, pH 6.5, 40° C., compared with background formulation without oligomer
[4] = rituximab 100 mg/ml, trehalose 200 mM, pH 6.5, 40° C., additive 0.2 mg/ml
[5] = rituximab 100 mg/ml, trehalose 200 mM, pH 6.5, 40° C., additive 1 mg/ml
[6] = rituximab 100 mg/ml, trehalose 200 mM, pH 6.5, 40° C., additive 5 mg/ml
[7] = trehalose 200 mM, pH 6.5, 40° C.
[8] = rituximab 140 mg/ml, trehalose 200 mM, pH 6.5, 40° C., additive 0.2 mg/ml
[9] = rituximab 140 mg/ml, trehalose 200 mM, pH 6.5, 40° C., additive 1 mg/ml
[10] = rituximab 140 mg/ml, trehalose 200 mM, pH 6.5, 40° C., additive 5 mg/ml
[11] = histidine 10 mM pH 6.0, 1,2-propanediol 200 mM, additive 3 mg/ml
[12] = histidine 10 mM pH 6.0, 1,2-propanediol 200 mM, additive 35.9 mg/ml
[13] = histidine 10 mM pH 6.0, NaCl 150 mM, additive 3 mg/ml
[14] = histidine 10 mM pH 6.0, NaCl 150 mM, additive 35.9 mg/ml
[15] = rituximab 100 mg/ml, arginine 80 mM, pH 6.5, 40° C., additive 0.1 mg/ml
[16] = rituximab 100 mg/ml, arginine 80 mM, pH 6.5, 40° C., additive 0.5 mg/ml
[17] = rituximab 100 mg/ml, arginine 80 mM, pH 6.5, 40° C., additive 2.5 mg/ml
[18] = rituximab 100 mg/ml, trehalose 200 mM, pH 6.5, 5° C., additive 0.1 mg/ml
[19] = rituximab 100 mg/ml, trehalose 200 mM, pH 6.5, 5° C., additive 0.5 mg/ml
[20] = rituximab 100 mg/ml, trehalose 200 mM, pH 6.5, 5° C., additive 2.5 mg/ml
[21] = rituximab 100 mg/ml, trehalose 200 mM, pH 6.5, 40° C., additive 0.1 mg/ml
[22] = rituximab 100 mg/ml, trehalose 200 mM, pH 6.5, 40° C., additive 0.5 mg/ml
[23] = rituximab 100 mg/ml, trehalose 200 mM, pH 6.5, 40° C., additive 2.5 mg/ml
[24] = Example 4: rituximab 100 mg/ml, trehalose 200 mM, pH 6.5, 40° C.
[25] = rituximab 140 mg/ml, trehalose 200 mM, pH 6.5, 40° C., additive 0.02 mg/ml
[26] = rituximab 140 mg/ml, trehalose 200 mM, pH 6.5, 40° C., additive 0.1 mg/ml
[27] = rituximab 140 mg/ml, trehalose 200 mM, pH 6.5, 40° C., additive 0.03 mg/ml
[28] = rituximab 140 mg/ml, trehalose 200 mM, pH 6.5, 40° C., additive […]

% HMWS 0 weeks (rituximab [1]; [15]): 1.58%
% HMWS 12 weeks (rituximab [1]; [15]): 2.08%
% HMWS 0 weeks (rituximab [1]; [16]): 1.53%
% HMWS 12 weeks (rituximab [1]; [16]): 1.89%
% HMWS 0 weeks (rituximab [1]; [17]): 1.47%
% HMWS 12 weeks (rituximab [1]; [17]): 0.85%
% HMWS 8 weeks (rituximab [1]; [18]): 1.23%
% HMWS T0 (rituximab [1]; [18]): 1.40%
% HMWS 8 weeks (rituximab [1]; [19]): 1.22%
% HMWS T0 (rituximab [1]; [19]): 1.44%
% HMWS 8 weeks (rituximab [1]; [20]): 1.21%
% HMWS T0 (rituximab [1]; [20]): 1.40%
% HMWS 8 weeks (rituximab [1]; [21]): 1.79%
% HMWS T0 (rituximab [1]; [21]): 1.40%
% HMWS 8 weeks (rituximab [1]; [22]): 1.85%
% HMWS T0 (rituximab [1]; [22]): 1.44%
% HMWS 8 weeks (rituximab [1]; [23]): 1.45%
% HMWS T0 (rituximab [1]; [23]): 1.40%
Visual (8 weeks) (rituximab [2]; pH 6.5, 5° C., additive 0.1 mg/ml): Clear
Visual (8 weeks) (rituximab [2]; pH 6.5, 5° C., additive 0.5 mg/ml): Clear
Visual (8 weeks) (rituximab [2]; pH 6.5, 5° C., additive 2.5 mg/ml): Clear
Visual (8 weeks) (rituximab [2]; pH 6.5, 40° C., additive 0.1 mg/ml): Clear
Visual (8 weeks) (rituximab [2]; pH 6.5, 40° C., additive 0.5 mg/ml): Clear
Visual (8 weeks) (rituximab [2]; pH 6.5, 40° C., additive 2.5 mg/ml): Clear
Compound: Cl.Cl.Cl.Cl.Cl.NCCNCCNCCNCCN [Tetraethylenepentamine, tetraethylenepentamine pentahydrochloride]
effect on the rate of formation of HMWS (rituximab [1]; Example 1: rituximab 100 mg/ml, trehalose, pH 6.5, 40° C. and 5° C.): reduce considerably the rate of formation of HMWS
effect on the rate of formation of HMWS (rituximab [1]; Example 3: rituximab 100 mg/ml, arginine 80 mM, pH 6.5, 40° C., compared with background solutions without oligomer): reduce considerably the rate of formation of HMWS

rate of aggregation compared with Original formulation (rituximab [1]; [24]): lower
% HMWS 16 weeks (rituximab [1]; [4]): 0.94%
% HWMS 0 weeks (rituximab [1]; [4]): 0.81%
% HMWS 16 weeks (rituximab [1]; [5]): 0.70%
% HWMS 0 weeks (rituximab [1]; [5]): 0.70%
% HMWS 16 weeks (rituximab [1]; [6]): 0.67%
% HWMS 0 weeks (rituximab [1]; [6]): 0.79%
% HMWS 0 weeks (rituximab [1]; [25]): 0.37%
% HMWS 12 weeks (rituximab [1]; [25]): 0.91%
% HMWS 26 weeks (rituximab [1]; [25]): 4.09%
% HMWS 0 weeks (rituximab [1]; [26]): 0.38%
% HMWS 12 weeks (rituximab [1]; [26]): 0.35%
% HMWS 26 weeks (rituximab [1]; [26]): 0.89%
% HMWS 0 weeks (rituximab [1]; [9]): 0.38%
% HMWS 12 weeks (rituximab [1]; [9]): 0.24%
% HMWS 0 weeks (rituximab [1]; [10]): 0.37%
% HMWS 12 weeks (rituximab [1]; [10]): 0.29%
% HMWS 26 weeks (rituximab [1]; [10]): 1.83%
Compound: NCCNCCN [Diethylenetriamine]
effect on the rate of formation of HMWS (rituximab [1]; [3]): considerably reduce the rate of formation of HMWS in a dose dependent manner
effect on the rate of aggregation (rituximab [1]; [7]): considerable, dose-dependent reduction in the aggregation rate

rate of aggregation compared with Original formulation (rituximab [1]; [24]): lower
% HMWS 16 weeks (rituximab [1]; [4]): 0.81%
% HWMS 0 weeks (rituximab [1]; [4]): 0.74%
% HMWS 16 weeks (rituximab [1]; [5]): 0.56%
% HWMS 0 weeks (rituximab [1]; [5]): 0.84%
% HMWS 16 weeks (rituximab [1]; [6]): 0.51%
% HWMS 0 weeks (rituximab [1]; [6]): 0.74%
% HMWS 0 weeks (rituximab [1]; [27]): 0.36%
% HMWS 12 weeks (rituximab [1]; [27]): 0.29%
% HMWS 26 weeks (rituximab [1]; [27]): 4.18%
% HMWS 0 weeks (rituximab [1]; [9]): 0.36%
% HMWS 12 weeks (rituximab [1]; [9]): 0.27%
% HMWS 26 weeks (rituximab [1]; [9]): 0.45%
% HMWS 0 weeks (rituximab [1]; [10]): 0.26%
% HMWS 12 weeks (rituximab [1]; [10]): 0.17%
% HMWS 26 weeks (rituximab [1]; [10]): 0.64%
% HMWS 0 weeks (rituximab [1]; [28]): 0.35%
% HMWS 12 weeks (rituximab [1]; [28]): 0.32%
% HMWS 26 weeks (rituximab [1]; [28]): 3.26%
% HMWS 0 weeks (Certolizumab pegol; histidine 10 mM pH 6.0, 1,2-propanediol 200 mM, additive 1 mg/ml): 0.55%
% HMWS 0 weeks (Certolizumab pegol; [11]): 0.49%
% HMWS 8 weeks (Certolizumab pegol; [11]): 0.85%
% HMWS 0 weeks (Certolizumab pegol; histidine 10 mM pH 6.0, NaCl 150 mM, additive 1 mg/ml): 0.63%
% HMWS 0 weeks (Certolizumab pegol; [13]): 0.49%
Compound: NCCNCCNCCN [Triethylenetetramine]
effect on the rate of formation of HMWS (rituximab [1]; [3]): considerably reduce the rate of formation of HMWS in a dose dependent manner
effect on the rate of aggregation (rituximab [1]; [7]): considerable, dose-dependent reduction in the aggregation rate

More lines, now with the values behind:

Compound: 2K mPEG valerate PEI800 [Compound (4), reference compound]
effect on the rate of formation of HMWS (rituximab [1]; [3]): reduced the rate of formation of HMWS in a dose dependent manner
% HMWS 16 weeks (rituximab [1]; [4]): 2.57%
% HWMS 0 weeks (rituximab [1]; [4]): 0.69%
% HMWS 16 weeks (rituximab [1]; [5]): 1.06%
% HWMS 0 weeks (rituximab [1]; [5]): 0.79%
% HMWS 16 weeks (rituximab [1]; [6]): 0.93%
% HWMS 0 weeks (rituximab [1]; [6]): 0.69%

Compound: 5K mPEG Propyl Triethylenetetramine Ethanol [Compound (2)]
effect on the rate of aggregation (rituximab [1]; [7]): reduction in the rate of aggregation
% HMWS 0 weeks (rituximab [1]; [8]): 0.25%
% HMWS 12 weeks (rituximab [1]; [8]): 1.31%
% HMWS 26 weeks (rituximab [1]; [8]): 4.79%
% HMWS 0 weeks (rituximab [1]; [9]): 0.40%
% HMWS 12 weeks (rituximab [1]; [9]): 1.17%
% HMWS 26 weeks (rituximab [1]; [9]): 4.44%
% HMWS 0 weeks (rituximab [1]; [10]): 0.35%
% HMWS 12 weeks (rituximab [1]; [10]): 0.97%
% HMWS 26 weeks (rituximab [1]; [10]): 3.60%
% HMWS 0 weeks (Certolizumab pegol; [11]): 0.64%
% HMWS 8 weeks (Certolizumab pegol; [11]): 2.02%
% HMWS 0 weeks (Certolizumab pegol; [12]): 0.81%
% HMWS 8 weeks (Certolizumab pegol; [12]): 2.47%
% HMWS 0 weeks (Certolizumab pegol; [13]): 0.66%
% HMWS 8 weeks (Certolizumab pegol; [13]): 3.32%
% HMWS 0 weeks (Certolizumab pegol; [14]): 0.79%
% HMWS 8 weeks (Certolizumab pegol; [14]): 2.39%

Compound: NCCN [Ethylenediamine, reference compound]
effect on the rate of formation of HMWS (rituximab [1]; [3]): less effective in reducing the formation of HMWS
% HMWS 16 weeks (rituximab [1]; [4]): 2.44%
% HWMS 0 weeks (rituximab [1]; [4]): 0.49%
% HMWS 16 weeks (rituximab [1]; [5]): 2.27%
% HWMS 0 weeks (rituximab [1]; [5]): 0.72%
% HMWS 16 weeks (rituximab [1]; [6]): 2.08%
% HWMS 0 weeks (rituximab [1]; [6]): 0.78%
